{"source": "patent US4426390A", "about": "“Novel β-lactam compounds, process for producing thereof, and use thereof as medicines” (Sanraku-Ocean Co., Ltd., priority 1980, dated 1984)", "format_in_all_cases": "cell-based", "key": {"Proteus vulgaris GN76 [1]": {"system": "Proteus vulgaris GN76", "test": "Disc assay of synergy, inhibition zones", "settings": "for diameter of inhibition zones: disc OA-6129B2, PS-5 100 μg/ml, CER, PCG 1000 μg/ml", "procedure": "(§1) (B) The presence or absence of synergy is visually checked by the size difference in inhibitory zones observed when the test drug is disc-assayedon an agar plate of a detector microbe and on an agar plate of the detector containing cephaloridine or benzylpenicillin, respectively.\n(§2) One loopful of the stock culture of a test organism is inoculated in heat infusion broth (5 ml/tube), and grown at 37° C. for 18 hours. The culture broth is diluted to a final concentration of about 10^5 cells/ml in nutrient agar with or without benzyl penicillin or cephaloridine, and plated in a Petri dish with a diameter of 9 cm, as shown below.\n(§3) Using the above-prepared agar plates, antibiotic PS-5 (100 μg/ml), antibiotic OA-6129B2 (5,6-trans OA-6129B) (100 μg/ml), benzylpenicillin (1000 μg/ml) and cephaloridine (1000 μg/ml) are subjected to disc assay."}, "[2]": {"system": "Citrobacter Freundii GN346", "test": "Disc assay of synergy, inhibition zones", "settings": "for diameter of inhibition zones: disc OA-6129B2, PS-5 100 μg/ml, CER, PCG 1000 μg/ml", "procedure": "as §1, §2, §3"}, "Enterobacter cloacac 45": {"system": "Enterobacter cloacac 45", "test": "Disc assay of synergy, inhibition zones", "settings": "for diameter of inhibition zones: disc OA-6129B2, PS-5 100 μg/ml, CER, PCG 1000 μg/ml", "procedure": "as §1, §2, §3"}, "Serratia marccscens T55": {"system": "Serratia marccscens T55", "test": "Disc assay of synergy, inhibition zones", "settings": "for diameter of inhibition zones: disc OA-6129B2, PS-5 100 μg/ml, CER, PCG 1000 μg/ml", "procedure": "as §1, §2, §3"}, "Proteus vulgaris GN76 [3]": {"system": "Proteus vulgaris GN76", "test": "Synergistic effect on MIC, microdilution transfer plate technique"}, "[4]": {"system": "Citrobacter Freundii GN346", "test": "Synergistic effect on MIC, microdilution transfer plate technique"}, "[5]": {"settings": "plate: + PCG, reduced to 5 μg/ml (final concentration)"}}, "data": [{"smiles": "CC1(C)S[C@@H]2[C@H](NC(=O)Cc3ccccc3)C(=O)N2[C@H]1C(=O)O", "note": "[PCG, benzylpenicillin]", "values": [{"measurement": "diameter of inhibition zones", "setting": "Proteus vulgaris GN76 [1]; plate: + CER", "value": 0, "unit": "mm"}, {"measurement": "diameter of inhibition zones", "setting": "Proteus vulgaris GN76 [1]; plate: + PCG", "value": 0, "unit": "mm"}, {"measurement": "diameter of inhibition zones", "setting": "Proteus vulgaris GN76 [1]; plate: None", "value": 0, "unit": "mm"}, {"measurement": "diameter of inhibition zones", "setting": "[2]; plate: + CER", "value": 0, "unit": "mm"}, {"measurement": "diameter of inhibition zones", "setting": "[2]; plate: + PCG", "value": 0, "unit": "mm"}, {"measurement": "diameter of inhibition zones", "setting": "[2]; plate: None", "value": 0, "unit": "mm"}, {"measurement": "diameter of inhibition zones", "setting": "Enterobacter cloacac 45; plate: + CER", "value": 0, "unit": "mm"}, {"measurement": "diameter of inhibition zones", "setting": "Enterobacter cloacac 45; plate: + PCG", "value": 0, "unit": "mm"}, {"measurement": "diameter of inhibition zones", "setting": "Enterobacter cloacac 45; plate: None", "value": 0, "unit": "mm"}, {"measurement": "diameter of inhibition zones", "setting": "Serratia marccscens T55; plate: + CER", "value": 0, "unit": "mm"}, {"measurement": "diameter of inhibition zones", "setting": "Serratia marccscens T55; [5]", "value": "tr."}, {"measurement": "diameter of inhibition zones", "setting": "Serratia marccscens T55; plate: None", "value": "tr."}]}, {"smiles": "O=C(Cc1cccs1)N[C@@H]1C(=O)N2C(C(=O)[O-])=C(C[n+]3ccccc3)CS[C@H]12", "note": "[CER, Cephaloridine]", "values": [{"measurement": "MIC", "setting": "Proteus vulgaris GN76 [3]; Proteus vulgaris, GN76, alone, heart infusion broth, 10^5 cells/ml", "value": 1250, "unit": "µg/mL"}, {"measurement": "MIC of CER in combination", "setting": "Proteus vulgaris GN76 [3]; with OA-6129A 1.56 μg/ml", "value": 313, "unit": "µg/mL"}, {"measurement": "MIC of CER in combination", "setting": "Proteus vulgaris GN76 [3]; with OA-6129A 6.25 μg/ml", "value": 39, "unit": "µg/mL"}, {"measurement": "MIC of CER in combination", "setting": "Proteus vulgaris GN76 [3]; with OA-6129A 25 μg/ml", "value": "< 5", "unit": "µg/mL"}, {"measurement": "MIC of CER in combination", "setting": "Proteus vulgaris GN76 [3]; with OA-6129A 50 μg/ml", "value": "< 5", "unit": "µg/mL"}, {"measurement": "zone of inhibition at 100 µg/mL", "setting": "Proteus vulgaris GN76 [1]; Proteus vulgaris, GN76, read-out: diameter of inhibition zones", "value": 0, "unit": "mm"}, {"measurement": "diameter of inhibition zones", "setting": "Proteus vulgaris GN76 [1]; plate: + CER", "value": 0, "unit": "mm"}, {"measurement": "diameter of inhibition zones", "setting": "Proteus vulgaris GN76 [1]; plate: + PCG", "value": 0, "unit": "mm"}, {"measurement": "zone of inhibition at 100 µg/mL", "setting": "[2]; Citrobacter freundii, GN346, read-out: diameter of inhibition zones", "value": 0, "unit": "mm"}, {"measurement": "diameter of inhibition zones", "setting": "[2]; plate: + CER", "value": 0, "unit": "mm"}, {"measurement": "diameter of inhibition zones", "setting": "[2]; plate: + PCG", "value": 0, "unit": "mm"}, {"measurement": "zone of inhibition at 100 µg/mL", "setting": "Enterobacter cloacac 45; Enterobacter, 45, read-out: diameter of inhibition zones", "value": 0, "unit": "mm"}, {"measurement": "diameter of inhibition zones", "setting": "Enterobacter cloacac 45; plate: + CER", "value": 0, "unit": "mm"}, {"measurement": "diameter of inhibition zones", "setting": "Enterobacter cloacac 45; plate: + PCG", "value": 0, "unit": "mm"}, {"measurement": "zone of inhibition at 100 µg/mL", "setting": "Serratia marccscens T55; Serratia, T55, read-out: diameter of inhibition zones", "value": 0, "unit": "mm"}, {"measurement": "diameter of inhibition zones", "setting": "Serratia marccscens T55; plate: + CER", "value": 0, "unit": "mm"}, {"measurement": "diameter of inhibition zones", "setting": "Serratia marccscens T55; [5]", "value": 0, "unit": "mm"}, {"measurement": "MIC of CER in combination", "setting": "[4]; with OA-6129A 1.56 μg/ml", "value": 1250, "unit": "µg/mL"}, {"measurement": "MIC of CER in combination", "setting": "[4]; with OA-6129A 6.25 μg/ml", "value": 313, "unit": "µg/mL"}, {"measurement": "MIC of CER in combination", "setting": "[4]; with OA-6129A 25 μg/ml", "value": "< 5", "unit": "µg/mL"}, {"measurement": "MIC of CER in combination", "setting": "[4]; with OA-6129A 50 μg/ml", "value": "< 5", "unit": "µg/mL"}]}]}
